Assays:
FLT3 = molecular target: T1, FLT3 (Homo sapiens, UniProt P36888); assay: TR-FRET kinase activity assay, FLT3; assay type: biochemical; conditions: ATP at Km, 60 minutes
T1 sequence (P36888 27-993): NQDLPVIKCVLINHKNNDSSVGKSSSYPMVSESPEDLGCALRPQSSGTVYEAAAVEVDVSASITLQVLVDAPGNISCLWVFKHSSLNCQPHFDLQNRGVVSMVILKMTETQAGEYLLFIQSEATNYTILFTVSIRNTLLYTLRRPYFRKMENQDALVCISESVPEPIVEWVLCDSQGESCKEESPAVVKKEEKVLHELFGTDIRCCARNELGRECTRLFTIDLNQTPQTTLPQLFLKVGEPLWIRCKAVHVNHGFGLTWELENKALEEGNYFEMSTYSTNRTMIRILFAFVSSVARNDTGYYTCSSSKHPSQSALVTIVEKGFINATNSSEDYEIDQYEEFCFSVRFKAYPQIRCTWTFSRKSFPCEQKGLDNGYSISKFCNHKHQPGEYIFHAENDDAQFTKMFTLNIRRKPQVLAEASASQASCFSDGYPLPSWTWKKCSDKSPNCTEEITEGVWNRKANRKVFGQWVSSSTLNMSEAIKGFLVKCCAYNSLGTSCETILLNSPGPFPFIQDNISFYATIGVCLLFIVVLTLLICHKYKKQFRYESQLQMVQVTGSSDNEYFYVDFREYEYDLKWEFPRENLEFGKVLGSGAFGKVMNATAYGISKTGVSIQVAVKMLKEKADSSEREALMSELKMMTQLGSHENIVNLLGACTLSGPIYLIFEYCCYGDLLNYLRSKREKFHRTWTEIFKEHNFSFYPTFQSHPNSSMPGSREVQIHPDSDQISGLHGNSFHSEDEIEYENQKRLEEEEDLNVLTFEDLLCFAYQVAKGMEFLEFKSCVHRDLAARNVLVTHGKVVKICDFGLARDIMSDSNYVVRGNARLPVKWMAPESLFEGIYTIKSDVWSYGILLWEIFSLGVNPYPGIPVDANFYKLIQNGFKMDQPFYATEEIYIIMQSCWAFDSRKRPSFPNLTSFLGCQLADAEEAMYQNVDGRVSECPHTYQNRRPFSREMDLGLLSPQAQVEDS
Summary of the method: (§1)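 TR-FRET signal from Eu-labeled phospho-site antibody bound to tyrosine-phosphorylated fluorescent peptide; inhibition lowers signal, giving IC50. Reactions: 50 mM HEPES pH 7.5, 10 mM MgCl2, 1 mM EGTA, 0.01% Brij 35, 1 mM DTT, ATP at Km per enzyme, 60 min, RT.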

MERTK = molecular target: T2, MERTK (Homo sapiens, UniProt Q12866); assay: TR-FRET kinase activity assay, MERTK; assay type: biochemical; conditions: for IC50: TR-FRET activity assay, ATP at Km, 60 minutes, read-out: Mer IC50; for Mer/Flt3 ratio (FLT3 IC50/Mer IC50): ratio calculated as FLT3 IC50/Mer IC50
T2 sequence (Q12866 21-999): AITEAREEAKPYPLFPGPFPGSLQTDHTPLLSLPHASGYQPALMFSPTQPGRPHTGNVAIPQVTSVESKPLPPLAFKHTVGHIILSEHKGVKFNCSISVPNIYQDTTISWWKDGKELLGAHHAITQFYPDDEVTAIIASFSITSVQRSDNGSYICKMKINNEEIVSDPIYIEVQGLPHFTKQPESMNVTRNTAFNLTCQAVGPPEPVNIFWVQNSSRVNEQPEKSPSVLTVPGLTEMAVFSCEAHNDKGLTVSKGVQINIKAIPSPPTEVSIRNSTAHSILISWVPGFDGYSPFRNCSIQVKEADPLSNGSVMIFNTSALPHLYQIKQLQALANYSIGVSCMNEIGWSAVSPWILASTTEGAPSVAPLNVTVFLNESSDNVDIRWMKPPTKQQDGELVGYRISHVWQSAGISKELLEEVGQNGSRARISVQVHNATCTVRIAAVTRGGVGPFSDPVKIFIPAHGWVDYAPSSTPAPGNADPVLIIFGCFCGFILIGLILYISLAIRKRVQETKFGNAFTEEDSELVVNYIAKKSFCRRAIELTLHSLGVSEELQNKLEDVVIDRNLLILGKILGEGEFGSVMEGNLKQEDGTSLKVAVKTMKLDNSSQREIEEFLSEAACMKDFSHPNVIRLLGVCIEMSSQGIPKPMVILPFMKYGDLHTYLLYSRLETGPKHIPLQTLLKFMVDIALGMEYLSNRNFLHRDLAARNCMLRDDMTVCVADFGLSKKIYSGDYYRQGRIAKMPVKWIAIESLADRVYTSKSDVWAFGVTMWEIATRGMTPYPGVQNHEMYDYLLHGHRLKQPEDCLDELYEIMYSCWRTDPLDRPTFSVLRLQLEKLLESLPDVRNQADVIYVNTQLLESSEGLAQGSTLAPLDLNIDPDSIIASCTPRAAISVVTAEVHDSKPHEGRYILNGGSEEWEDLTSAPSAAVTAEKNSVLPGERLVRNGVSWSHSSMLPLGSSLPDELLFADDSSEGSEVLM
Summary of the method: as §1

SMILES | IC50 (FLT3) | IC50 (MERTK) | Mer/Flt3 ratio (FLT3 IC50/Mer IC50) (MERTK)
COC[C@H](C)Nc1ncc2c(OC3CCOCC3)ncc(-c3cccc(C(N)=O)c3)c2n1 [Compound 325] | 1000 to 10000 nM | 100 to 1000 nM | ++ (a ratio of between 10 and 100)
COC[C@H](C)Nc1ncc2c(OC3CCOCC3)ncc([C@H]3CCCNC3)c2n1 [Compound 326] | ≤ 100 nM | 100 to 1000 nM | NS (a ratio of ≤2.0)
COC[C@H](C)Nc1ncc2c(OC3CCOCC3)ncc([C@@H]3CCCNC3)c2n1 [Compound 327] | 1000 to 10000 nM | 100 to 1000 nM | ++ (a ratio of between 10 and 100)
COC[C@H](C)Nc1ncc2c(OC3CCOCC3)ncc(-c3cccc(S(N)(=O)=O)c3)c2n1 [Compound 328] | 1000 to 10000 nM | 100 to 1000 nM | ++ (a ratio of between 10 and 100)
COC[C@H](C)Nc1ncc2c(OC3CCOCC3)ncc([C@H]3CC[C@@](O)(C(F)(F)F)CC3)c2n1 [Compound 329] | 1000 to 10000 nM | ≤ 100 nM | +++ (a ratio of >100)
COC[C@H](C)Nc1ncc2c(OC3CCOCC3)ncc([C@H]3CC[C@](O)(C(F)(F)F)CC3)c2n1 [Compound 330] | 1000 to 10000 nM | 100 to 1000 nM | ++ (a ratio of between 10 and 100)
N#Cc1ccc(Nc2ncc3c(OC4CCNCC4)ncc([C@H]4CC[C@H](O)CC4)c3n2)cc1 [Compound 331] | ≤ 100 nM | ≤ 100 nM | + (a ratio of >2.0 and <10)
COC[C@H](C)Nc1ncc2c(OC3CCOCC3)ncc([C@H]3CCCN(C)C3)c2n1 [Compound 332] | 1000 to 10000 nM | 100 to 1000 nM | + (a ratio of >2.0 and <10)
COC[C@H](C)Nc1ncc2c(OC3CCOCC3)ncc([C@@H]3CCCN(C)C3)c2n1 [Compound 333] | 1000 to 10000 nM | 1000 to 10000 nM | + (a ratio of >2.0 and <10)
COC[C@H](C)Nc1ncc2c(OC3CCOCC3)ncc(-c3cnn([C@H]4CCN(C)C4)c3)c2n1 [Compound 334] | 1000 to 10000 nM | ≤ 100 nM | ++ (a ratio of between 10 and 100)
COC[C@H](C)Nc1ncc2c(OC3CCOCC3)ncc(-c3ccc(CO)cc3)c2n1 [Compound 335] | 1000 to 10000 nM | ≤ 100 nM | +++ (a ratio of >100)
O[C@H]1CC[C@H](c2cnc(OC3CCOCC3)c3cnc(N[C@H]4CCC(F)(F)C4)nc32)CC1 [Compound 336] | 100 to 1000 nM | ≤ 100 nM | ++ (a ratio of between 10 and 100)
COC[C@H](C)Nc1ncc2c(OC3CCOCC3)ncc(-c3ccc(N)nc3)c2n1 [Compound 337] | 1000 to 10000 nM | ≤ 100 nM | +++ (a ratio of >100)
C[C@H](CC(F)(F)F)Nc1ncc2c(OC3CCOCC3)ncc([C@H]3CC[C@H](O)CC3)c2n1 [Compound 338] | 1000 to 10000 nM | ≤ 100 nM | +++ (a ratio of >100)
CCC1(Nc2ncc3c(OC4CCOCC4)ncc([C@H]4CC[C@H](O)CC4)c3n2)CC1 [Compound 339] | 1000 to 10000 nM | ≤ 100 nM | +++ (a ratio of >100)
CNC(=O)N[C@H]1CC[C@H](c2cnc(OC3CCOCC3)c3cnc(N[C@@H](C)COC)nc32)CC1 [Compound 340] | 1000 to 10000 nM | ≤ 100 nM | +++ (a ratio of >100)
CNS(=O)(=O)N1CCC(c2cnc(OC3CCOCC3)c3cnc(N[C@@H](C)COC)nc23)CC1 [Compound 341] | 1000 to 10000 nM | ≤ 100 nM | +++ (a ratio of >100)
COC[C@H](C)Nc1ncc2c(OC3CCOCC3)ncc(-c3ccnnc3)c2n1 [Compound 342] | 1000 to 10000 nM | 1000 to 10000 nM | + (a ratio of >2.0 and <10)
COC[C@H](C)Nc1ncc2c(OC3C[C@H]4CC[C@@H](C3)N4C)ncc([C@H]3CC[C@H](O)CC3)c2n1 (stereo partly drawn) [Compound 343] | 1000 to 10000 nM | ≤ 100 nM | +++ (a ratio of >100)
COC[C@H](C)Nc1ncc2c(OC3CCN(c4ncccn4)CC3)ncc([C@H]3CC[C@H](O)CC3)c2n1 [Compound 344] | 1000 to 10000 nM | ≤ 100 nM | +++ (a ratio of >100)
CNC(=O)N1CCC(c2cnc(OC3CCOCC3)c3cnc(N[C@@H](C)COC)nc23)CC1 [Compound 345] | 1000 to 10000 nM | 100 to 1000 nM | ++ (a ratio of between 10 and 100)
COC[C@H](C)Nc1ncc2c(OC3CCOCC3)ncc(C3CCCCN3)c2n1 (stereo partly drawn) [Compound 346] | 1000 to 10000 nM | 100 to 1000 nM | + (a ratio of >2.0 and <10)
COC[C@H](C)Nc1ncc2c(OC3CCOCC3)ncc(-c3cn[nH]c3)c2n1 [Compound 347] | 100 to 1000 nM | 100 to 1000 nM | + (a ratio of >2.0 and <10)
COC[C@H](C)Nc1ncc2c(C3CC3)ncc([C@H]3CC[C@H](O)CC3)c2n1 [Compound 349] | 1000 to 10000 nM | ≤ 100 nM | +++ (a ratio of >100)
COC[C@H](C)Nc1ncc2c(OC3CCOCC3)ncc(C3CCCCN3C)c2n1 (stereo partly drawn) [Compound 350] | 1000 to 10000 nM | 100 to 1000 nM | ++ (a ratio of between 10 and 100)
COC[C@@H](C)Nc1ncc2c(OC3CC(O)C3)ncc([C@H]3CC[C@H](O)CC3)c2n1 (stereo partly drawn) [Compound 351] | 1000 to 10000 nM | ≤ 100 nM | +++ (a ratio of >100)

Source: patent publication US20200291018A1, “TAM KINASE INHIBITORS” (SYROS PHARMACEUTICALS, INC., priority 2017, published 2020)
